In PubChem BioAssay (NCI):
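Interpolation was linear, between the two tested concentrations surrounding the appropriate level; five concentrations were tested over 48 hours in 96-well plates. TGI: concentration producing complete growth inhibition.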

Legend:
Test in all cases: NCI tumour cell line growth inhibition, 48 h
UACC-257 melanoma = test system: UACC-257 melanoma
NCI-H226 lung = test system: NCI-H226 lung
EKVX NSCLC = test system: EKVX NSCLC
SK-OV-3 ovarian = test system: SK-OV-3 ovarian
MDA-N = test system: MDA-N
BT-549 breast = test system: BT-549 breast
HL-60(TB) leukemia = test system: HL-60(TB) leukemia
RXF 393 renal = test system: RXF 393 renal
UACC-62 melanoma = test system: UACC-62 melanoma
SR leukemia = test system: SR leukemia
T-47D breast = test system: T-47D breast
IGROV1 ovarian = test system: IGROV1 ovarian
OVCAR-5 ovarian = test system: OVCAR-5 ovarian
TK-10 renal = test system: TK-10 renal
HS 578T breast = test system: HS 578T breast
U251 CNS = test system: U251 CNS
A549 NSCLC = test system: A549 NSCLC
SF-539 CNS = test system: SF-539 CNS
NCI/ADR-RES ovarian = test system: NCI/ADR-RES ovarian
SNB-19 CNS = test system: SNB-19 CNS
OVCAR-3 ovarian = test system: OVCAR-3 ovarian
CAKI-1 renal = test system: CAKI-1 renal
MOLT-4 leukemia = test system: MOLT-4 leukemia
M14 melanoma = test system: M14 melanoma
K-562 leukemia = test system: K-562 leukemia
A498 renal = test system: A498 renal
OVCAR-4 ovarian = test system: OVCAR-4 ovarian
786-0 renal = test system: 786-0 renal
NCI-H23 lung = test system: NCI-H23 lung
DU-145 prostate = test system: DU-145 prostate
MDA-MB-231 breast = test system: MDA-MB-231 breast
SF-295 CNS = test system: SF-295 CNS
LOX IMVI melanoma = test system: LOX IMVI melanoma
SK-MEL-5 melanoma = test system: SK-MEL-5 melanoma
SNB-75 CNS = test system: SNB-75 CNS
SN12C renal = test system: SN12C renal
PC-3 prostate = test system: PC-3 prostate
SK-MEL-28 melanoma = test system: SK-MEL-28 melanoma
HCT-116 colon = test system: HCT-116 colon
RPMI-8226 leukemia = test system: RPMI-8226 leukemia
MCF7 breast = test system: MCF7 breast
SK-MEL-2 melanoma = test system: SK-MEL-2 melanoma
CCRF-CEM leukemia = test system: CCRF-CEM leukemia
MALME-3M melanoma = test system: MALME-3M melanoma
COLO 205 colon = test system: COLO 205 colon
ACHN renal = test system: ACHN renal
UO-31 renal = test system: UO-31 renal
SW-620 colon = test system: SW-620 colon
HT29 colon = test system: HT29 colon
OVCAR-8 ovarian = test system: OVCAR-8 ovarian
HOP-92 NSCLC = test system: HOP-92 NSCLC
HOP-62 NSCLC = test system: HOP-62 NSCLC
NCI-H522 lung = test system: NCI-H522 lung
KM12 colon = test system: KM12 colon
SF-268 CNS = test system: SF-268 CNS
MDA-MB-435 = test system: MDA-MB-435
HCT-15 colon = test system: HCT-15 colon
HCC-2998 colon = test system: HCC-2998 colon
NCI-H460 lung = test system: NCI-H460 lung

Measured: TGI

NCCNS(=O)(=O)c1ccc(N)cc1
41.5 µM: HL-60(TB) leukemia
not listed: HCC-2998 colon | NCI-H460 lung
> 100 µM: all other assays above

CC(C)(C)OC(=O)NC(Cc1ccc(OCc2ccccc2)cn1)C(=O)N1CCCC1 (stereo not drawn)
91.8 µM: NCI/ADR-RES ovarian
67.4 µM: SF-539 CNS
41.9 µM: SK-MEL-5 melanoma
96.7 µM: BT-549 breast
not listed: NCI-H226 lung | SK-OV-3 ovarian | OVCAR-4 ovarian
> 100 µM: all other assays above
